Reference: patent US9302999B2, “Substituted triazoles as herbicides” (E. I. DU PONT DE NEMOURS AND COMPANY, priority 2012, dated 2016)

Key:
Format in all cases: in vivo
[1] = tested on: johnsongrass (Sorghum halepense); test: Test F pre-/postemergence: johnsongrass; details: Preemergence
Method in brief: (§1)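 Preemergence treatment of seeds sown in silt loam soil, and postemergence treatment of plants 2–18 cm tall (1- to 4-leaf stage), with compounds in non-phytotoxic solvent plus surfactant. Greenhouse 14–21 days, then visual rating versus controls on 0–100 scale (100 = complete control).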

[2] = tested on: foxtail, giant (giant foxtail, Setaria faberii); test: Test F pre-/postemergence: foxtail, giant; details: Preemergence
Description: (§2) Seeds of plant species selected from corn (Zea mays), soybean (Glycine max), velvetleaf (Abutilon theophrasti), lambsquarters (Chenopodium album), poinsettia, wild (wild poinsettia, Euphorbia heterophylla), pigweed, palmer (palmer pigweed, Amaranthus palmeri), waterhemp (common waterhemp, Amaranthus rudis), surinam grass (Brachiaria decumbens), crabgrass, Brazil (Brazilian crabgrass, Digitaria horizontalis), panicum, fall (fall panicum Panicum dichotomiflorum), crabgrass, large (large crabgrass, Digitaria sanguinalis), foxtail, giant (giant foxtail, Setaria faberii), foxtail, green (green foxtail Setaria viridis), goosegrass (Eleusine indica), ragweed (common ragweed, Ambrosia elatior), barnyardgrass (Echinochloa crus-galli), sandbur (southern sandbur, Cenchrus echinatus), arrowleaf sida (Sida rhombifolia), ryegrass, Italian (Italian ryegrass, Lolium multiflorum), dayflower, VA (Virginia (VA) dayflower, Commelina virginica), field bindweed (Convolvulus arvensis), cocklebur (common cocklebur, Xanthium strumarium), morningglory (Ipomoea coccinea), nightshade (eastern black nightshade, Solanum ptycanthum), kochia (Kochia scoparia), nutsedge, yellow (yellow nutsedge, Cyperus esculentus), johnsongrass (Sorghum halepense), smartweed (ladysthumb smartweed, Polygonum persicaria), and beggarticks (hairy beggarticks, Bidens pilosa), were planted into a silt loam soil and treated preemergence with test chemicals formulated in a non-phytotoxic solvent mixture which included a surfactant. At the same time, plants selected from these crop and weed species and also pigweed (Amaranthus retroflexus), waterhemp_RES1 (ALS/Triazine resistant common waterhemp, Amaranthus rudis) and waterhemp_RES2 (ALS/HPPD resistant common waterhemp, Amaranthus rudis) were planted in pots containing a planting medium comprising spaghnum peat moss, vermiculite, wetting agent and starter nutrients treated with postemergence applications of some of the test chemicals formulated in the same manner. Plants ranged in height from 2 to 18 cm for postemergence treatments (1- to 4-leaf stage).
(§3) Treated plants and controls were maintained in a greenhouse for 14 to 21 days, after which time all species were compared to controls and visually evaluated. Plant response ratings, summarized in Table E, are based on a scale of 0 to 100 where 0 is no effect and 100 is complete control. A dash (-) response means no test result.

[3] = tested on: foxtail, green (green foxtail Setaria viridis); test: Test F pre-/postemergence: foxtail, green; details: Preemergence
Description: as §2, §3

[4] = tested on: goosegrass (Eleusine indica); test: Test F pre-/postemergence: goosegrass; details: Preemergence
Description: as §2, §3

[5] = tested on: morningglory (Ipomoea coccinea); test: Test F pre-/postemergence: morningglory; details: Preemergence
Description: as §2, §3

[6] = tested on: sandbur (southern sandbur, Cenchrus echinatus); test: Test F pre-/postemergence: sandbur
Method in brief: as §1

[7] = tested on: pigweed (Amaranthus retroflexus); test: Test D pre-/postemergence: pigweed
Method in brief: (§4)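 Pre- and postemergence herbicide screen. Soil for pre: silt loam; post medium: peat moss, vermiculite, wetting agent, starter nutrients. Plant stage at post: 1- to 4-leaf. Readout: visual % control, 14–21 days.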

[8] = tested on: buckwheat, wild (wild buckwheat, Polygonum convolvulus); test: Test D pre-/postemergence: buckwheat, wild
Method in brief: as §4

[9] = tested on: wheat, winter (winter wheat, Triticum aestivum); test: Test D pre-/postemergence: wheat, winter
Method in brief: as §4

[10] = tested on: bromegrass, downy (downy bromegrass, Bromus tectorum); test: Test D pre-/postemergence: bromegrass, downy
Method in brief: as §4

[11] = 16 g ai/ha, scale 0 to 100, 0 no effect, 100 complete control
[12] = 31 g ai/ha, scale 0 to 100, 0 no effect, 100 complete control
[13] = Preemergence, 16 g ai/ha, scale 0 to 100, 0 no effect, 100 complete control
[14] = Preemergence, 31 g ai/ha, scale 0 to 100, 0 no effect, 100 complete control
[15] = Preemergence, 125 g ai/ha, scale 0 to 100
[16] = Preemergence, 250 g ai/ha, scale 0 to 100
[17] = Postemergence, 16 g ai/ha, scale 0 to 100
[18] = Postemergence, 31 g ai/ha, scale 0 to 100 (0 no effect, 100 complete control)
[19] = Postemergence, 62 g ai/ha, scale 0 to 100 (0 no effect, 100 complete control)
[20] = Postemergence, 125 g ai/ha, scale 0 to 100, 0 no effect, 100 complete control
[21] = Preemergence, 62 g ai/ha, scale 0 to 100

`COc1nn(-c2cccc(F)c2)nc1Cc1ccnc(C(F)(F)F)c1` [Compound 139] was tested, and the “Plant response rating, Johnsongrass” value [1, 11] was 0, the “Plant response rating, Johnsongrass” value [1, 12] was 75 and the “Plant response rating, Johnsongrass” value ([1]; 62 g ai/ha, scale 0 to 100) was 90. The “Plant response rating, Johnsongrass” value ([1]; 125 g ai/ha, scale 0 to 100) was 98, the “Plant response rating, Johnsongrass” value ([1]; 250 g ai/ha, scale 0 to 100) was 100 and the “Plant response rating, Foxtail, Giant” value [2, 11] was 0. For the same compound, the “Plant response rating, Foxtail, Giant” value [2, 12] was 40, the “Plant response rating, Foxtail, Giant” value ([2]; 62 g ai/ha, scale 0 to 100) was 85 and the “Plant response rating, Foxtail, Giant” value ([2]; 125 g ai/ha, scale 0 to 100) was 98. For the same compound, the “Plant response rating, Foxtail, Giant” value ([2]; 250 g ai/ha, scale 0 to 100) was 100, the “Plant response rating, Foxtail, Green” value [3, 11] was 10 and the “Plant response rating, Foxtail, Green” value [3, 12] was 35. For the same compound, the “Plant response rating, Foxtail, Green” value ([3]; 62 g ai/ha, scale 0 to 100) was 98, the “Plant response rating, Foxtail, Green” value ([3]; 125 g ai/ha, scale 0 to 100) was 100 and the “Plant response rating, Foxtail, Green” value ([3]; 250 g ai/ha, scale 0 to 100) was 100. The “Plant response rating, Goosegrass” value [4, 11] was 5, the “Plant response rating, Goosegrass” value [4, 12] was 70 and the “Plant response rating, Goosegrass” value ([4]; 62 g ai/ha, scale 0 to 100) was 80. The “Plant response rating, Goosegrass” value ([4]; 125 g ai/ha, scale 0 to 100) was 98, the “Plant response rating, Goosegrass” value ([4]; 250 g ai/ha, scale 0 to 100) was 100 and the “Plant response rating, Morningglory” value [5, 11] was 0. The “Plant response rating, Morningglory” value [5, 12] was 0, the “Plant response rating, Morningglory” value ([5]; 125 g ai/ha, scale 0 to 100) was 5 and the “Plant response rating, Morningglory” value ([5]; 250 g ai/ha, scale 0 to 100) was 20. For the same compound, the “Plant response rating, Sandbur” value [6, 13] was 0, the “Plant response rating, Sandbur” value [6, 14] was 5 and the “Plant response rating, Sandbur” value [6, 15] was 35. For the same compound, the “Plant response rating, Sandbur” value [6, 16] was 40.
With `CCc1nn(-c2ccc(C(F)(F)F)cc2)nc1Oc1ccnc(C(F)(F)F)c1` [Compound 169] the “Plant response rating, Johnsongrass” value [1, 11] was 0, the “Plant response rating, Johnsongrass” value [1, 12] was 0 and the “Plant response rating, Johnsongrass” value ([1]; 62 g ai/ha, scale 0 to 100) was 20. The “Plant response rating, Johnsongrass” value ([1]; 125 g ai/ha, scale 0 to 100) was 50, the “Plant response rating, Johnsongrass” value ([1]; 250 g ai/ha, scale 0 to 100) was 80 and the “Plant response rating, Foxtail, Giant” value [2, 11] was 70. For the same compound, the “Plant response rating, Foxtail, Giant” value [2, 12] was 100, the “Plant response rating, Foxtail, Giant” value ([2]; 62 g ai/ha, scale 0 to 100) was 100 and the “Plant response rating, Foxtail, Giant” value ([2]; 125 g ai/ha, scale 0 to 100) was 100. The “Plant response rating, Foxtail, Giant” value ([2]; 250 g ai/ha, scale 0 to 100) was 100, the “Plant response rating, Foxtail, Green” value [3, 11] was 98 and the “Plant response rating, Foxtail, Green” value [3, 12] was 100. The “Plant response rating, Foxtail, Green” value ([3]; 62 g ai/ha, scale 0 to 100) was 100, the “Plant response rating, Foxtail, Green” value ([3]; 125 g ai/ha, scale 0 to 100) was 100 and the “Plant response rating, Foxtail, Green” value ([3]; 250 g ai/ha, scale 0 to 100) was 100. The “Plant response rating, Goosegrass” value [4, 11] was 50, the “Plant response rating, Goosegrass” value [4, 12] was 95 and the “Plant response rating, Goosegrass” value ([4]; 62 g ai/ha, scale 0 to 100) was 100. For the same compound, the “Plant response rating, Goosegrass” value ([4]; 125 g ai/ha, scale 0 to 100) was 100, the “Plant response rating, Goosegrass” value ([4]; 250 g ai/ha, scale 0 to 100) was 100 and the “Plant response rating, Morningglory” value [5, 11] was 0. The “Plant response rating, Morningglory” value [5, 12] was 0, the “Plant response rating, Morningglory” value ([5]; 125 g ai/ha, scale 0 to 100) was 40 and the “Plant response rating, Morningglory” value ([5]; 250 g ai/ha, scale 0 to 100) was 40. For the same compound, the “Plant response rating, Sandbur” value ([6]; Postemergence, 250 g ai/ha, scale 0 to 100) was 25, the “Plant response rating, Sandbur” value [6, 17] was 15 and the “Plant response rating, Sandbur” value ([6]; Postemergence, 31 g ai/ha, scale 0 to 100) was 15. The “Plant response rating, Sandbur” value ([6]; Postemergence, 62 g ai/ha, scale 0 to 100) was 20, the “Plant response rating, Sandbur” value ([6]; Postemergence, 125 g ai/ha, scale 0 to 100) was 20 and the “Plant response rating, Sandbur” value [6, 13] was 0. For the same compound, the “Plant response rating, Sandbur” value [6, 14] was 20, the “Plant response rating, Sandbur” value [6, 15] was 65 and the “Plant response rating, Sandbur” value [6, 16] was 75.
`CCc1nn(-c2ccc(C(F)(F)F)cc2)nc1Cc1ccnc(C(F)(F)F)c1` [Compound 155] was tested, and the “Plant response rating: Pigweed” value [7, 18] was 75, the “Plant response rating: Pigweed” value [7, 19] was 95 and the “Plant response rating: Pigweed” value [7, 20] was 95. The “Plant response rating, Pigweed” value [7, 17] was 70, the “Plant response rating, Pigweed” value [7, 13] was 60 and the “Plant response rating, Pigweed” value [7, 14] was 80. For the same compound, the “Plant response rating, Pigweed” value [7, 21] was 100, the “Plant response rating, Pigweed” value [7, 15] was 100 and the “Plant response rating: Buckwheat, Wild” value [8, 18] was 70. For the same compound, the “Plant response rating: Buckwheat, Wild” value [8, 19] was 70, the “Plant response rating: Buckwheat, Wild” value [8, 20] was 75 and the “Plant response rating, Buckwheat, Wild” value [8, 17] was 75. The “Plant response rating, Buckwheat, Wild” value [8, 13] was 10, the “Plant response rating, Buckwheat, Wild” value [8, 14] was 25 and the “Plant response rating, Buckwheat, Wild” value [8, 21] was 50. The “Plant response rating, Buckwheat, Wild” value [8, 15] was 70, the “Plant response rating, Johnsongrass” value ([1]; 62 g ai/ha, scale 0 to 100) was 90 and the “Plant response rating, Johnsongrass” value ([1]; 125 g ai/ha, scale 0 to 100) was 90. The “Plant response rating, Johnsongrass” value ([1]; 250 g ai/ha, scale 0 to 100) was 100, the “Plant response rating, Foxtail, Giant” value ([2]; 62 g ai/ha, scale 0 to 100) was 98 and the “Plant response rating, Foxtail, Giant” value ([2]; 125 g ai/ha, scale 0 to 100) was 100. For the same compound, the “Plant response rating, Foxtail, Giant” value ([2]; 250 g ai/ha, scale 0 to 100) was 100, the “Plant response rating: Wheat, Winter” value [9, 18] was 10 and the “Plant response rating: Wheat, Winter” value [9, 19] was 15. For the same compound, the “Plant response rating: Wheat, Winter” value [9, 20] was 25, the “Plant response rating, Wheat, Winter” value [9, 17] was 5 and the “Plant response rating, Wheat, Winter” value [9, 13] was 0. For the same compound, the “Plant response rating, Wheat, Winter” value [9, 14] was 0, the “Plant response rating, Wheat, Winter” value [9, 21] was 5 and the “Plant response rating, Wheat, Winter” value [9, 15] was 5. The “Plant response rating, Foxtail, Green” value ([3]; 62 g ai/ha, scale 0 to 100) was 100, the “Plant response rating, Foxtail, Green” value ([3]; 125 g ai/ha, scale 0 to 100) was 100 and the “Plant response rating, Foxtail, Green” value ([3]; 250 g ai/ha, scale 0 to 100) was 100. For the same compound, the “Plant response rating, Goosegrass” value ([4]; 62 g ai/ha, scale 0 to 100) was 100, the “Plant response rating, Goosegrass” value ([4]; 125 g ai/ha, scale 0 to 100) was 100 and the “Plant response rating, Goosegrass” value ([4]; 250 g ai/ha, scale 0 to 100) was 100. The “Plant response rating, Sandbur” value [6, 15] was 100, the “Plant response rating, Sandbur” value [6, 16] was 100 and the “Plant response rating: Bromegrass, Downy” value [10, 18] was 15. The “Plant response rating: Bromegrass, Downy” value [10, 19] was 35, the “Plant response rating: Bromegrass, Downy” value [10, 20] was 55 and the “Plant response rating, Bromegrass, Downy” value [10, 17] was 5. For the same compound, the “Plant response rating, Bromegrass, Downy” value [10, 13] was 0, the “Plant response rating, Bromegrass, Downy” value [10, 14] was 5 and the “Plant response rating, Bromegrass, Downy” value [10, 21] was 10. For the same compound, the “Plant response rating, Bromegrass, Downy” value [10, 15] was 35.
